Data reported in patent US12533353B2, “Methods of treatment of cancer comprising CDC7 inhibitors” (CARNA BIOSCIENCES, INC., priority 2018, dated 2026).
Where two headings read alike, the source gives them in different places.

Experiment: 4-cycle repeat oral dose toxicology study (5 days on/2 days off)
Type: in vivo, rat
Settings: for Cmax / AUC(0-t): plasma, po; for AUC(0-t): read-out: AUC24 h
Procedure: Toxicology studies evaluating SRA141 were conducted in rat and dog following single and repeat oral dosing for up to 4 cycles (5 days on/2 days off per cycle). In addition, the potential genetic toxicity of SRA141 was evaluated in vitro.

[1] = 50 mg/kg/day, at NOAEL, rat, female
[2] = 50 mg/kg/day, at NOAEL, rat, male
[3] = 100 mg/kg/day, at MTD/HNSTD, rat, female
[4] = 100 mg/kg/day, at MTD/HNSTD, rat, male

For `CCOC(=O)C1=C(NN2CCN(CC(F)(F)F)CC2)O/C(=C\c2c[nH]c3ncccc23)C1=O` [SRA141], which MTD at 4 cycles (5 days on/2 days off) (in vivo, oral, rat (MTD), read-out: MTD/HNSTD Dose) is on record?
The MTD at 4 cycles (5 days on/2 days off) was 100 mg/kg/day.

What about the Cmax [1] of the same compound?
The Cmax was 711 ng/mL.

And the AUC(0-t) [1]?
The AUC(0-t) was 8550 ng·h/mL.

And the Cmax [2]?
Its Cmax is 289 ng/mL.

What about the AUC(0-t) [2] of the same compound?
The AUC(0-t) was 2870 ng·h/mL.

And the Cmax [3]?
The Cmax was 1610 ng/mL.

What about the AUC(0-t) [3] of the same compound?
The AUC(0-t) was 29000 ng·h/mL.

And the Cmax [4]?
The Cmax was 390 ng/mL.

What about the AUC(0-t) [4] of the same compound?
The AUC(0-t) was 5130 ng·h/mL.

What about the “NOAEL Dose” value (rat) of the same compound?
Its value is 300 mg/m2/day.

What about the “MTD/HNSTD Dose” value (rat (MTD)) of the same compound?
The value was 600 mg/m2/day.

What about the “potential target organs for SRA141-related toxicity” value (rat and dog repeat-dose studies together) of the same compound?
Its value is “gallbladder/biliary system, lymphoid tissues (spleen, thymus, lymph node and GALT), bone marrow, liver, kidney, male and female reproductive tract, peripheral leukocytes, and salivary gland”.

What about the NOAEL at 4 cycles (5 days on/2 days off) (rat, in vivo, oral) of the same compound?
The NOAEL at 4 cycles (5 days on/2 days off) was 50 mg/kg/day.
